The text below walks through data of patent US7737288B2, “Non-steroidal androgen receptor modulators, preparation process, pharmaceutical composition and use thereof” (Shanghai Institute of Materia Medica Chinese Academy of …, priority 2005, dated 2010).

One may read the melting point as the temperature of the solid-liquid transition.

Series [1] deals with androgen receptor. Put plainly: Test of reporter gene expression (luciferase) in transfected MDA-MB-453 cells. In kind it is cell-based, human. (In general: In a reporter assay the amount or activity of a reporter protein is the signal.)
The target of series [2] is T1, androgen receptor (Homo sapiens, UniProt P10275).
T1 construct: made in house; host or cells: insect cells (baculovirus expression system)
T1 sequence (P10275 1-920): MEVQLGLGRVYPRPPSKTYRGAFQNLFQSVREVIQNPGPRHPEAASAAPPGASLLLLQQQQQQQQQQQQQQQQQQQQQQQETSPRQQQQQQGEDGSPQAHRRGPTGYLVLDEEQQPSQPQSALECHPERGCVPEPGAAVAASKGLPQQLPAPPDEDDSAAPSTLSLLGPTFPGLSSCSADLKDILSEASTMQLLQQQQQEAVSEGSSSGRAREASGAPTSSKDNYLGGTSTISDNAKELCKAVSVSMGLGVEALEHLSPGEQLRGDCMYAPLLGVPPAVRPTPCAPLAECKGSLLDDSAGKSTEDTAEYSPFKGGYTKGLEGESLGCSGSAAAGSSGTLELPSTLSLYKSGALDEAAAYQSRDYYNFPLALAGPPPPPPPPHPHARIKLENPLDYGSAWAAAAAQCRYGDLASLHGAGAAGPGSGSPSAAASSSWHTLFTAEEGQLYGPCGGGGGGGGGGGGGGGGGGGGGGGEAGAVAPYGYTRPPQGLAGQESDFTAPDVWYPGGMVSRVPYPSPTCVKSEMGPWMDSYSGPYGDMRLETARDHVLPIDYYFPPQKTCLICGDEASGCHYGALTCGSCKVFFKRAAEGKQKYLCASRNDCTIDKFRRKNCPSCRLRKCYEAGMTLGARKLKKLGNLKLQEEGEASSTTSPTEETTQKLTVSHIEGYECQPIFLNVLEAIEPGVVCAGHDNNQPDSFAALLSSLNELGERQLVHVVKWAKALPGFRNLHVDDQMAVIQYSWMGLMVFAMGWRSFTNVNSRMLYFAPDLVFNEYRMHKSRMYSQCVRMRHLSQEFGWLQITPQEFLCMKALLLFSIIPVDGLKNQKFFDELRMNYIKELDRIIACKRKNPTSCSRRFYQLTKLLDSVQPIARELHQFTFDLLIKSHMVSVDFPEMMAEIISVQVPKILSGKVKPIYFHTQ
The series is described as follows: Test of receptor binding activity ([3H]DHT competition, hydroxyapatite). To be noted: competition with 5 nM [3H]DHT, overnight at 4° C.
Procedure: Then the resultant mixture was added into the plates with a volume of 195 μl each well immediately after mixed thoroughly, and incubated overnight at 4° C. After the incubation was completed, 50 μl of hydroxyapatite (HA) solution (25% HA, 25 mM Na3PO4, pH7.4) was added to each well of the calandria, uniformly mixed by shaking, and incubated for 10 minutes, during the period it was shaken once every 3 minutes. The centrifugation was conducted at 2500 rpm for 3 minutes, the supernatant was sucked out, and the precipitate was reserved. Two hundred μl of the assay buffer was added into each well, the precipitate is avoided to be shaken as far as possible, and the centrifugation was conducted for 3 minutes again. The supernatant was sucked out, and the precipitate was reserved. The centrifugation was repeated once, the supernatant was sucked out, and the precipitate was reserved. 300 μl of scintillation fluid was added to each well.

In a further series the test system is LNCaP cells. Put plainly: Test of prostate cancer cell proliferation induced by DHT (MTT). In kind it is cell-based. To be noted: Homo sapiens, 144 h, read-out: IC50, inhibition of LNCaP cell proliferation stimulated by DHT. The procedure:
LNCaP cells were cultured in RPMI1640 medium containing 10% FBS and 2 mM L-glutamine. The above medium was replaced by RPMI1640 medium containing 5% CD-FBS one day before experiment. When the cells grew to 90% confluence, the cells were added to 96-well plate with 4000 cells/90 μL/well after dissociated with trypsin, and were cultured at 37° C. overnight. The compounds to be tested were added to the cells with 10 μL/well after diluted to certain concentrations. […]. […] MTT solution (5 mg/mL) was added with 20 μL/well before the culture was completed. Light absorption values at 560 nm were measured with the reference wavelength of 690 nm.

[3] abbreviates: read-out: Receptor binding (IC50).

SMILES strings stand for the structures. Like-named read-outs stand apart in the source and are kept apart here.

In the case of `Cc1ccc(C(=O)CC(Nc2ccc(Cl)cc2)c2ccccc2)cc1` (stereo not drawn) [Example 1, 3-phenyl-3-(4-chloroanilino)-1-(4-methylphenyl)-1-acetone], the melting point fell in the range of 152 to 154 °C.

With `Cc1ccc(C(=O)CC(Nc2ccc([N+](=O)[O-])cc2)c2ccccc2)cc1` (stereo not drawn) [Example 3, 3-phenyl-3-(4-nitroanilino)-1-(4-methylphenyl)-1-acetone], the melting point lay in the range of 157 to 159 °C. `Cc1ccc(C(=O)CC(Nc2ccc(C(=O)O)cc2)c2ccccc2)cc1` (stereo not drawn) [Example 4, 3-phenyl-3-(4-carboxylanilino)-1-(4-methylphenyl)-1-acetone] gave a melting point of 208 to 210 °C.

`Cc1ccc(C(=O)CC(Nc2ccccc2)c2ccc(C)cc2)cc1` (stereo not drawn) [Example 5, 3-(4-methylphenyl)-3-anilino-1-(4-methylphenyl)-1-acetone] returned a melting point of 131 to 132 °C. As to `O=C(CC(Nc1ccc([N+](=O)[O-])cc1)c1ccccc1)c1ccc(Cl)cc1` (stereo not drawn) [MWW6003], the “androgen receptor antagonistic activities, IC50 compared with bicalutamide” value in the series on androgen receptor [1] is “close to the androgen receptor antagonist bicalutamide”. Moreover, on androgen receptor [2] (setting [3]), the IC50 came to 2.93 nM. With `O=C(CC(Nc1ccc([N+](=O)[O-])cc1)c1ccccc1)c1ccc(Br)cc1` (stereo not drawn) [MWW6015], the IC50 on androgen receptor [2] (setting [3]) was 2.85 nM. Turning to `O=C(CC(Nc1ccc([N+](=O)[O-])c(C(F)(F)F)c1)c1ccccc1)c1ccc(Cl)cc1` (stereo not drawn) [MWW6016], the IC50 at androgen receptor [2] (Receptor binding (IC50, nM)) is 9.49 nM. Consider `O=C(CC(Nc1ccc(Cl)c([N+](=O)[O-])c1)c1ccccc1)c1ccc(Cl)cc1` (stereo not drawn) [MWW6021], for which the IC50 at androgen receptor [2] (setting [3]) came out at 6.45 nM. Still for that read-out and setting: next, `O=C(CC(Nc1ccc(Cl)c([N+](=O)[O-])c1)c1ccccc1)c1ccc(Br)cc1` (stereo not drawn) [MWW6022]: 4.31 nM. As for `O=C(CC(Nc1ccc(Cl)c([N+](=O)[O-])c1)c1ccco1)c1ccc(Cl)cc1` (stereo not drawn) [MWW6030], the IC50 on androgen receptor [2] (setting [3]) turned out to be 3.25 nM. Turning to `O=C(CC(Nc1ccc(Cl)c([N+](=O)[O-])c1)c1ccco1)c1ccc(Br)cc1` (stereo not drawn) [MWW6031], the IC50 at androgen receptor [2] (setting [3]) worked out at 3.61 nM. For the molecule `O=C(CC(Nc1ccc([N+](=O)[O-])cc1)c1ccco1)c1ccc(Cl)cc1` (stereo not drawn) [MWW6032], the IC50 in the series on LNCaP cells amounted to 2280 nM. Also, the “androgen receptor antagonistic activities, IC50 compared with bicalutamide” value in the series on androgen receptor [1] is listed as “close to the androgen receptor antagonist bicalutamide”. In the case of `O=C(CC(Nc1ccc([N+](=O)[O-])cc1)c1ccco1)c1ccc(Br)cc1` (stereo not drawn) [MWW6033], at androgen receptor [2] (setting [3]), the IC50 was 3.01 nM.
